Data from patent US20260085073A1, “PYRAZOLYLCARBOXAMIDE COMPOUNDS AND THEIR USE IN THERAPY” (Hotspot Therapeutics, Inc., priority 2022, published 2026).

Biological target: T1, MALT1 (Homo sapiens, UniProt Q9UDY8)
T1 construct: Avi-tagged FL MALT-1 (Pharmaron, stored at −70° C.); Avi-tag
T1 sequence (Q9UDY8 1-824): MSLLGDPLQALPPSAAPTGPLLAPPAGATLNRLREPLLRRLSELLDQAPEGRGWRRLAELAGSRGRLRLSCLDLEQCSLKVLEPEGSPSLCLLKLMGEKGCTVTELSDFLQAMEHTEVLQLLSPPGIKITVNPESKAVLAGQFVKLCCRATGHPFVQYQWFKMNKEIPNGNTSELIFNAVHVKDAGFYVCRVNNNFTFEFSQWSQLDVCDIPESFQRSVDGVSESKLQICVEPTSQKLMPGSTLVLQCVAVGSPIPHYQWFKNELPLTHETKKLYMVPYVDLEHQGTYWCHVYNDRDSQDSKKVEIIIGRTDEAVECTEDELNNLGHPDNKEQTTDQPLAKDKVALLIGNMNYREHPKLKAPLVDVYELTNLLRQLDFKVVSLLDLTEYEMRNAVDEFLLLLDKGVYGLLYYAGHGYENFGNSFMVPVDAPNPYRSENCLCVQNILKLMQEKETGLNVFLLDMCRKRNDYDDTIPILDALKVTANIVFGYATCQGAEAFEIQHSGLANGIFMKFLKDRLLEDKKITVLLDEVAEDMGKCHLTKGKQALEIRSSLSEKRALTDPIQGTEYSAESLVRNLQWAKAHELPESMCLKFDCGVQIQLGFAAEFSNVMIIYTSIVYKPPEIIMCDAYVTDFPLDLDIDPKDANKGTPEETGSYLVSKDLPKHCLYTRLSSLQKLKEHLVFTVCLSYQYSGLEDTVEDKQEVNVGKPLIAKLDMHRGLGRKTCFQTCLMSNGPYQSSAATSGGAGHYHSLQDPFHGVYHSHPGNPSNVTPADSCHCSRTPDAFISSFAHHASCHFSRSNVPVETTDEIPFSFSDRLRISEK
Assay: MALT1 inhibition assay (MALT-1 Fluorogenic Peptide Cleavage Assay, Ac-LRSR-AMC substrate)
Type: biochemical
Details: Avi-tagged FL MALT-1, 30 min pre-incubation, 90 min reaction at room temperature, fluorescence intensity
Procedure, shortened: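 Full-length Avi-tagged MALT1 pre-incubated 30 min at room temperature with compounds (2% DMSO final) in HEPES pH 6.89, sodium citrate, TCEP, EDTA, CHAPS buffer. Ac-LRSR-AMC added from 50 µM (Km) or […] working stocks; 90 min at room temperature, AMC fluorescence (ex 342/em 441 nm); IC50 from % inhibition curves.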

SMILES | IC50 [µM]
O=C1c2c(C(F)(F)F)c(-c3ccccc3)nn2CCCN1c1ccnc(C(F)(F)F)c1 [Compound I-183, 2-phenyl-3-(trifluoromethyl)-5-(2-(trifluoromethyl)pyridin-4-yl)-5,6,7,8-tetrahydro-4H-pyrazolo[1,5-a][1,4]diazepin-4-one] | > 10
O=C1c2c(C(F)(F)F)c(-c3ccccc3)nn2CCN1c1ccnc(C(F)(F)F)c1 [Compound I-184] | > 10
CN(C)CCn1nc(-c2cccc3ccoc23)c(C(F)(F)F)c1C(=O)Nc1cnc(-n2nccn2)c(C#N)c1 [Compound I-186, 3-(benzofuran-7-yl)-N-(5-cyano-6-(2H-1,2,3-triazol-2-yl)pyridin-3-yl)-1-(2-(dimethylamino)ethyl)-4-(trifluoromethyl)-1H-pyrazole-5-carboxamide] | < 0.5
Cn1nc(-c2cccc3c(=O)[nH]cnc23)c(C(F)(F)F)c1C(=O)Nc1ccnc(C(F)(F)F)c1 [Compound I-187, 1-methyl-3-(4-oxo-3,4-dihydroquinazolin-8-yl)-4-(trifluoromethyl)-N-(2-(trifluoromethyl)pyridin-4-yl)-1H-pyrazole-5-carboxamide] | 2.5 to 10
O=C(Nc1cnc(-n2nccn2)c(Cl)c1)c1nn2c(c1C(F)(F)F)-c1ccccc1CC2 [Compound I-188, N-(5-chloro-6-(2H-1,2,3-triazol-2-yl)pyridin-3-yl)-1-(trifluoromethyl)-5,6-dihydropyrazolo[5,1-a]isoquinoline-2-carboxamide] | < 0.5
O=C(Nc1cnc(-n2nccn2)c(Cl)c1)c1c(C(F)(F)F)c(-c2ccccc2)nn1C1CC1 [Compound I-189, N-(5-chloro-6-(2H-1,2,3-triazol-2-yl)pyridin-3-yl)-1-cyclopropyl-3-phenyl-4-(trifluoromethyl)-1H-pyrazole-5-carboxamide] | < 0.5
O=C(Nc1cnc(-n2nccn2)c(C(F)(F)F)c1)c1c(C(F)(F)F)c(-c2ccccc2)nn1C1CC1 [Compound I-190] | 0.5 to 2.5
O=C(Nc1cnc(-n2nccn2)c(Cl)c1)c1nn(C2CC2)c(-c2ccccc2)c1C(F)(F)F [Compound I-191] | 0.5 to 2.5
O=C(Nc1ccnc(C(F)(F)F)c1)c1nn(C2CC2)c(-c2ccccc2)c1C(F)(F)F [Compound I-192] | 0.5 to 2.5
Cn1nc(C(=O)c2ccccc2)c(C(F)(F)F)c1C(=O)Nc1ccnc(C(F)(F)F)c1 [Compound I-193, 3-benzoyl-1-methyl-4-(trifluoromethyl)-N-(2-(trifluoromethyl)pyridin-4-yl)-1H-pyrazole-5-carboxamide] | 0.5 to 2.5
Cn1nc(-c2cnc(CO)c3ccccc23)c(C(F)(F)F)c1C(=O)Nc1ccnc(C(F)(F)F)c1 [Compound I-194, 3-(1-(hydroxymethyl)isoquinolin-4-yl)-1-methyl-4-(trifluoromethyl)-N-(2-(trifluoromethyl)pyridin-4-yl)-1H-pyrazole-5-carboxamide] | 2.5 to 10
Cn1nc(-c2cnc3ccccn23)c(C(F)(F)F)c1C(=O)Nc1ccnc(C(F)(F)F)c1 [Compound I-195, 3-(imidazo[1,2-a]pyridin-3-yl)-1-methyl-4-(trifluoromethyl)-N-(2-(trifluoromethyl)pyridin-4-yl)-1H-pyrazole-5-carboxamide] | > 10
Cn1nc(-c2ccc(F)c(N)n2)c(C(F)(F)F)c1C(=O)Nc1ccnc(C(F)(F)F)c1 [Compound I-196, 3-(6-amino-5-fluoropyridin-2-yl)-1-methyl-4-(trifluoromethyl)-N-(2-(trifluoromethyl)pyridin-4-yl)-1H-pyrazole-5-carboxamide] | 0.5 to 2.5
Cn1nc(-c2cccc3c2CCNC3)c(C(F)(F)F)c1C(=O)Nc1ccnc(C(F)(F)F)c1 [Compound I-197] | > 10
Cn1nc(-c2cc(N)ncc2Cl)c(C(F)(F)F)c1C(=O)Nc1ccnc(C(F)(F)F)c1 [Compound I-198] | < 0.5
COc1c(-c2nn(C)c(C(=O)Nc3ccnc(C(F)(F)F)c3)c2C(F)(F)F)ccnc1N [Compound I-199] | 2.5 to 10
Cn1nc(C2CCNCC2)c(C(F)(F)F)c1C(=O)Nc1ccnc(C(F)(F)F)c1 [Compound I-200] | > 10
Cn1nc(-c2n[nH]c3cnccc23)c(C(F)(F)F)c1C(=O)Nc1ccnc(C(F)(F)F)c1 [Compound I-201] | > 10
Cn1nc(-c2c[nH]c3ncncc23)c(C(F)(F)F)c1C(=O)Nc1ccnc(C(F)(F)F)c1 [Compound I-202, 1-methyl-3-(7H-pyrrolo[2,3-d]pyrimidin-5-yl)-4-(trifluoromethyl)-N-(2-(trifluoromethyl)pyridin-4-yl)-1H-pyrazole-5-carboxamide] | > 10
Cn1nc(-c2ccccc2CC(F)(F)F)cc1C(=O)Nc1ccnc(C(F)(F)F)c1 [Compound I-203, 1-methyl-3-(2-(2,2,2-trifluoroethyl)phenyl)-N-(2-(trifluoromethyl)pyridin-4-yl)-1H-pyrazole-5-carboxamide] | 2.5 to 10
Cn1nc(C(=O)Nc2ccnc(C(F)(F)F)c2)c(C2CC2)c1-c1ccccc1 [Compound I-204, 4-cyclopropyl-1-methyl-5-phenyl-N-(2-(trifluoromethyl)pyridin-4-yl)-1H-pyrazole-3-carboxamide] | 2.5 to 10

SMILES | IC50 [µM]
Cn1nc(-c2ccccc2)c(C2CC2)c1C(=O)Nc1ccnc(C(F)(F)F)c1 [Compound I-205] | 0.5 to 2.5
Cn1nc(Oc2ccccc2)c(C(F)(F)F)c1C(=O)Nc1ccnc(C(F)(F)F)c1 [Compound I-206] | 0.5 to 2.5
Cn1nc(-c2ccccc2)cc1C(=O)Nc1ccc(C(=O)N2CC(O)C2)c(Cl)c1 [Compound I-207] | > 10
Cn1nc(COc2ccccc2)c(C(F)(F)F)c1C(=O)Nc1ccnc(C(F)(F)F)c1 [Compound I-208] | 2.5 to 10
CN(c1ccccc1)c1nn(C)c(C(=O)Nc2ccnc(C(F)(F)F)c2)c1C(F)(F)F [Compound I-209] | 0.5 to 2.5
Cn1nc(-c2cccc3nscc23)c(C(F)(F)F)c1C(=O)Nc1ccnc(C(F)(F)F)c1 [Compound I-210, 3-(benzo[c]isothiazol-4-yl)-1-methyl-4-(trifluoromethyl)-N-(2-(trifluoromethyl)pyridin-4-yl)-1H-pyrazole-5-carboxamide] | < 0.5
O=C(Nc1cnc(-n2nccn2)c(Cl)c1)c1c(C(F)(F)F)c(-c2ccccc2)nn1CCO [Compound I-211, N-(5-chloro-6-(2H-1,2,3-triazol-2-yl)pyridin-3-yl)-1-(2-hydroxyethyl)-3-phenyl-4-(trifluoromethyl)-1H-pyrazole-5-carboxamide] | 2.5 to 10
Cn1nc(-c2cccc3ncn(C)c23)c(C(F)(F)F)c1NC(=O)c1ccnc(C(F)(F)F)c1 [Compound I-221, N-(1-methyl-3-(1-methyl-1H-benzo[d]imidazol-7-yl)-4-(trifluoromethyl)-1H-pyrazol-5-yl)-2-(trifluoromethyl)isonicotinamide] | 2.5 to 10
Cn1nc(-c2cccc3nccn23)c(C(F)(F)F)c1C(=O)Nc1cnc(-n2nccn2)c(C(F)(F)F)c1 [Compound I-222] | < 0.5
Cc1ccc2ncsc2c1-c1nn(C)c(C(=O)Nc2ccnc(C(F)(F)F)c2)c1C(F)(F)F [Compound I-223] | 0.5 to 2.5
Cn1nc(-c2cccc3cncn23)c(C(F)(F)F)c1C(=O)Nc1ccnc(C(F)(F)F)c1 [Compound I-224] | 0.5 to 2.5
Cn1nc(-c2cnc3cnccn23)c(C(F)(F)F)c1C(=O)Nc1ccnc(C(F)(F)F)c1 [Compound I-225] | > 10
Cc1nc2cccc(-c3nn(C)c(C(=O)Nc4ccnc(C(F)(F)F)c4)c3C(F)(F)F)c2s1 [Compound I-226] | > 10
Cn1nc(-c2cccc3nccn23)c(C(F)(F)F)c1C(=O)Nc1ccnc(C2CC2)c1 [Compound I-227, N-(2-cyclopropylpyridin-4-yl)-3-(imidazo[1,2-a]pyridin-5-yl)-1-methyl-4-(trifluoromethyl)-1H-pyrazole-5-carboxamide] | 2.5 to 10
Cc1cc(-c2nn(C)c(C(=O)Nc3ccnc(C(F)(F)F)c3)c2C(F)(F)F)n2ccnc2c1 [Compound I-228] | > 10
Cc1cn2c(-c3nn(C)c(C(=O)Nc4ccnc(C(F)(F)F)c4)c3C(F)(F)F)cccc2n1 [Compound I-229] | 2.5 to 10
Cn1nc(-c2cncc3ccsc23)c(C(F)(F)F)c1C(=O)Nc1ccnc(C(F)(F)F)c1 [Compound I-230] | 0.5 to 2.5
Cn1nc(-c2n[nH]c3ncncc23)c(C(F)(F)F)c1C(=O)Nc1ccnc(C(F)(F)F)c1 [Compound I-231] | > 10
COc1ccc2ncsc2c1-c1nn(C)c(C(=O)Nc2ccnc(C(F)(F)F)c2)c1C(F)(F)F [Compound I-232] | < 0.5
Cn1nc(-c2cccn3nncc23)c(C(F)(F)F)c1C(=O)Nc1ccnc(C(F)(F)F)c1 [Compound I-233] | 2.5 to 10
